From US20240384233A1, “Method for Producing Cardiomyocytes by Means of Reprogramming” (Plastech Pharmaceutical Technology Co., Ltd., priority 2020, published 2024)

What was measured:
Tyk2 gene = test: Knockdown effect of shRNAs on Tyk2 expression; format: cell-based, mouse; settings: FIG. 21C
Excerpt: (§1) Briefly, shRNAs targeting Tyk2 gene (shTyk2#1, shTyk2#2, shTyk2#3, shTyk2#4, shTyk2#5) were designed, introduced into neonatal mouse fibroblasts together with transcription factor combination MT, and then induced in reprogramming medium containing C1 to test the efficiency of reprogramming into cardiomyocyte-like cells.

[1] = test system: neonatal mouse fibroblasts; test: Cardiomyocyte reprogramming with Tyk2 knockdown/knockout plus MT and C1; format: cell-based; settings: combined with transcription factor MT and C1
Excerpt: as §1
To further confirm the role of specific inhibition of Tyk2 in cardiomyocyte reprogramming, the inventors further designed five different sgRNAs targeting Tyk2 gene, knocked out the Tyk2 gene of neonatal mouse fibroblasts using CRISPR technique, and tested the efficiency of cardiomyocyte reprogramming in the presence of transcription factor MT and C1, respectively. sgNT was a control for non-targeted Tyk2.

[2] = test system: neonatal mouse skin fibroblasts (NSF) and mouse cardiac fibroblasts (nCFs); test: Substitute for 2C: small molecules of the same signaling pathway (beating cells in GMT NSF, cTnT positive cells in MT nCF); format: cell-based; settings: GMT NSF D18 beating, MT nCF four weeks cTnT; for replacement of SB431542 (beating cells, number of cTnT-positive cells): combined with Baricitinib; for replacement of Baricitinib (beating cells, number of cTnT-positive cells): combined with SB431542
Description: Specifically, at D-2 (day-2), Myh6-mCherry neonatal mouse skin fibroblasts (NSF) were plated; at D-1 (day-1),the cells were infected with three lentiviruses expressing Gata4, Mef2c and Tbx5 (GMT), respectively; at D0 (day 0), the media were replaced with reprogramming media added with small molecules, and replaced every 3-4 days; andat D18, beating cells were counted. In addition, at D-2, WT mouse cardiac fibroblasts (nCFs) were plated, and residual cardiomyocytes were removed with CD90.2 MACS; at D-1, the cells were infected with virus expressing Mef2c+Tbx5 (MT); at D0, the media were replaced with reprogramming media added with small molecules, and replaced every 3 days; and after four weeks, cTnT positive cells were counted.2C was used as a positive control.
SB431542 is an inhibitor of TGFβ signaling pathway, and this example analyzed whether other small molecules of this signaling pathway could be combined with Baricitinib, including RepSox, GW788388, SD-208, LY364947, Y-27632, LDN-193189, LY2109761 and Galunisertib. Baricitinib is an inhibitor of Jak pathway, and this example analyzed whether other small molecules of this signaling pathway could be combined with SB431542, including Filgotinib, WP1066, Gandotinib, Ruxolitinib and AZD1480. […] It can be seen that the TGFβ signaling pathway is important for reprogramming into cardiomyocytes; however, at the same time, Baricitinib cannot be replaced by most other compounds targeting Jak-Stat.

[3] = test system: neonatal mouse fibroblasts; test: Tyk2 small molecule inhibitors: reprogramming of neonatal mouse fibroblasts into cardiomyocytes (MT+SB431542); format: cell-based; settings: for beating cardiomyocytes: 2 uM SB431542; for cTnI and a-actinin positive cells: 2 uM SB431542, Tyk2 inhibitor 1, 2, 5 and 10 uM
Description: Neonatal suckling mice within 24 h were ordered from Vital River. In an ultraclean bench, heart tissue was taken, cut with sterilized surgical instruments, added with an appropriate amount of Type II Collagenase (1 mg/mL), digested at 37° C. constant temperature, after full digestion, washed twice with IMDM (20% FBS+1% PS+1% NEAA+1% Glu-Max) medium, resuspended with the medium, and plated in a 10 cm culture dish. After 24 h, fresh IMDM was added, and on the fourth day, CD90.2 (anti-Thy1+) was used for MACS separation. The sorted cells were plated in a 24-well plate 2-5×10^5/well), and infected with Fu-tet-o-Mef2c-T2A-Tbx5 virus and rtTA 24 h after plating. After 24 h, the medium was replaced with reprogramming medium, and replaced every 3 days. Beating cells could be seen at the 4th week, and a large number of cTnI and a-actinin could be seen by immunofluorescence staining.
10% FBS, 10% KSR, DMEM/M199 [4:1], 1% PS+1% NEAA+1% Glu-Max, 2 uM SB431542, Tyk2 inhibitor (BMS-986165 or PF-06826647), replaced every 3 days. Tyk2 inhibitor was used at 1, 2, 5 and 10 uM, and the optimal concentration is shown in the concentration gradient curve.

[4] = test system: Myh6-mCherry neonatal mouse skin fibroblasts (NSF); test: GMT-mediated reprogramming of Myh6-mCherry neonatal mouse skin fibroblasts into induced cardiomyocyte like cells (iCM); format: cell-based; settings: for optimal action concentration: cTnT staining, titrated on 2 μM of the other small molecule of 2C
Description: Reprogramming steps: at d-2, plating cells; at d-1, infecting with virus; andat d0, removing virus-containing medium, and replacing with reprogramming medium. Beating cell count and immunofluorescence assay were performed after approximately 3 weeks.
iCM reprogramming medium: DMEM/M199 (4:1) supplemented with 10% KnockOut serum replacement (KSR), 10% FBS, 1% GlutaMAX, 1% MEM NEAA, 1% Pen Strep, 2 μg/ml Dox and small molecule mixture 2C (2 μM SB431542, 2 μM Baricitinib).
At D-2, 24-well plate was coated with 0.1% gelatin and then placed in a cell culture incubator at 37° C. for 30 min, then the gelatin was aspirated, and the 24-well plate was inoculated with 80,000 cells per well. At D-1, MEF medium containing 6 ng/μl polybrene was replaced, the cells were infected with FU-tet-o-Gata4, FU-tet-o-Mef2c, FU-tet-o-Tbx5, FUdeltaGW-rtTA, 200 μl unconcentrated virus per well per virus. At D0, the medium was replaced with iCM reprogramming medium, and replaced every 3-4 days.
Screening was performed on Myh6-mCherry neonatal mouse dermal fibroblasts. Small molecule library was screened simultaneously with transfection of three genes of GMT (Gata4, Mef2c and Tbx5) to quantify the effect of small molecules on reprogramming by observing the ratio and brightness of reporter genes, as shown in FIG. 1A. Specifically, at D-2 (day-2), Myh6-mCherry neonatal mouse skin fibroblasts (NSF) were plated; at D-1 (day-1), the cells were infected with three lentiviruses expressing Gata4, Mef2c and Tbx5 (GMT), respectively; and at D0 (day 0), the media were replaced with reprogramming media added with small molecules, and replaced every 3-4 days. After three weeks of induction, the number of Myh6-mCherry positive cells was observed and counted to screen for small molecules that promoted the induced cardiomyocyte like cells (iCM).
The optimal action concentration and optimal action time of 2C were then further investigated. […] First, the optimal action concentration of SB431542 was determined by cardiomyocyte marker cTnT staining after adding different concentrations of SB431542 based on 2 μM Baricitinib. […]

[5] = test system: WT mouse cardiac fibroblasts (nCFs); test: Replacement of Baricitinib in combination with SB431542 on the basis of MT transduction; format: cell-based; settings: three weeks
Excerpt: In addition, some small anti-inflammatory molecules have been reported to increase reprogramming-induced cardiomyocyte efficiency, such as Dexamethasone or Nabumetone.

shTyk2#3: shRNA targeting Tyk2 gene, SEQ ID NO: 3 (CCACTTTAAGAATGAGAGCTTCTCGAGAAGCTCTCATTCTTAAAGTGG)
knockdown of Tyk2 expression (Tyk2 gene): could knockdown the expression of Tyk2
efficiency of cardiomyocyte reprogramming (cTnI and a-actinin immunofluorescence) [1]: could achieve similar efficiency of cardiomyocyte reprogramming as small molecule combination 2C

Cc1cccc(-c2nn3c(c2-c2ccnc4ccc(C(N)=O)cc24)CCC3)n1 [Galunisertib]
replacement of SB431542 (beating cells, number of cTnT-positive cells) [2]: could be effectively replaced by small molecules of the same signaling pathway

shTyk2#2: shRNA targeting Tyk2 gene, SEQ ID NO: 2 (CCCTTCATCAAGCTAAGTGATCTCGAGATCACTTAGCTTGATGAAGGG)
knockdown of Tyk2 expression (Tyk2 gene): could knockdown the expression of Tyk2
efficiency of cardiomyocyte reprogramming (cTnI and a-actinin immunofluorescence) [1]: could achieve similar efficiency of cardiomyocyte reprogramming as small molecule combination 2C

Fc1ccc(Cl)cc1-c1nc(Nc2ccncc2)c2nccnc2n1 [SD-208]
replacement of SB431542 (beating cells, number of cTnT-positive cells) [2]: could be effectively replaced by small molecules of the same signaling pathway

O=C(NC1CCOCC1)c1ccc(-c2cc(-c3c[nH]nc3-c3ccccn3)ccn2)cc1 [GW788388]
replacement of SB431542 (beating cells, number of cTnT-positive cells) [2]: could be effectively replaced by small molecules of the same signaling pathway

Cc1cc(Nc2nc(N[C@@H](C)c3ncc(F)cn3)ncc2Cl)n[nH]1 [AZD1480]
replacement of Baricitinib (beating cells, number of cTnT-positive cells) [2]: only its structural analogue Ruxolitinib could be used for replacement

Cn1cc(-c2cn3nccc3c(-c3cnn([C@]4(CC#N)C[C@@H](C#N)C4)c3)n2)cn1 [PF-06826647]
beating cardiomyocytes [3]: could induce beating cardiomyocytes from fibroblasts
cTnI and a-actinin positive cells [3]: could induce a number of cardiac specific markers cTnI and a-actinin positive cells from fibroblasts

C[C@H](NC(=O)/C(C#N)=C/c1cccc(Br)n1)c1ccccc1 [WP1066]
replacement of Baricitinib (beating cells, number of cTnT-positive cells) [2]: only its structural analogue Ruxolitinib could be used for replacement

c1ccc2c(-c3cnn4cc(-c5ccc(N6CCNCC6)cc5)cnc34)ccnc2c1 [LDN-193189]
replacement of SB431542 (beating cells, number of cTnT-positive cells) [2]: could be effectively replaced by small molecules of the same signaling pathway

BMS-986165
beating cardiomyocytes [3]: could induce beating cardiomyocytes from fibroblasts
cTnI and a-actinin positive cells [3]: could induce a number of cardiac specific markers cTnI and a-actinin positive cells from fibroblasts

NC(=O)c1ccc(-c2nc(-c3ccc4c(c3)OCO4)c(-c3ccccn3)[nH]2)cc1 [SB431542]
optimal action concentration [4]: 2 µM
efficiency of reprogramming induced cardiomyocytes (number of Myh6-mCherry positive cells) ([4]; three weeks of induction): increase the efficiency of reprogramming induced cardiomyocytes

C[C@@H](N)[C@H]1CC[C@H](C(=O)Nc2ccncc2)CC1 [Y-27632]
replacement of SB431542 (beating cells, number of cTnT-positive cells) [2]: could be effectively replaced by small molecules of the same signaling pathway

c1ccc(-c2[nH]ncc2-c2ccnc3ccccc23)nc1 [LY364947]
replacement of SB431542 (beating cells, number of cTnT-positive cells) [2]: could be effectively replaced by small molecules of the same signaling pathway

shTyk2#1: shRNA targeting Tyk2 gene, SEQ ID NO: 1 (CCCATCTTCATTAGCTGGGAACTCGAGTTCCCAGCTAATGAAGATGGG)
knockdown of Tyk2 expression (Tyk2 gene): could knockdown the expression of Tyk2
efficiency of cardiomyocyte reprogramming (cTnI and a-actinin immunofluorescence) [1]: could achieve similar efficiency of cardiomyocyte reprogramming as small molecule combination 2C

CCS(=O)(=O)N1CC(CC#N)(n2cc(-c3ncnc4[nH]ccc34)cn2)C1 [Baricitinib]
optimal action concentration [4]: 2 µM

Cc1cc(Nc2cc(CN3CCOCC3)c3nc(C)c(Cc4ccc(Cl)cc4F)n3n2)n[nH]1 [Gandotinib]
replacement of Baricitinib (beating cells, number of cTnT-positive cells) [2]: only its structural analogue Ruxolitinib could be used for replacement

COc1ccc2cc(CCC(C)=O)ccc2c1 [Nabumetone]
replacement of the effect of Baricitinib [5]: could not replace the effect of Baricitinib

Cc1cccc(-c2[nH]ncc2-c2ccc3ncccc3n2)n1 [RepSox]
replacement of SB431542 (beating cells, number of cTnT-positive cells) [2]: could be effectively replaced by small molecules of the same signaling pathway

c1ccc(-c2nn3c(c2-c2ccnc4cc(OCCN5CCOCC5)ccc24)CCC3)nc1 [LY2109761]
replacement of SB431542 (beating cells, number of cTnT-positive cells) [2]: could be effectively replaced by small molecules of the same signaling pathway

O=C(Nc1nc2cccc(-c3ccc(CN4CCS(=O)(=O)CC4)cc3)n2n1)C1CC1 [Filgotinib]
replacement of Baricitinib (beating cells, number of cTnT-positive cells) [2]: only its structural analogue Ruxolitinib could be used for replacement
